Values quoted from earlier work in patent US20250302774A1, “LISDEX[…] OROD[…] AND PROCESS FOR PREPARATION THEREOF” (ATHENA PHARM[…], priority 2024, published 2025).
Read-outs that look alike come from different tables or passages of the source.

Legend:
[1] = active substance, exposed to moisture, dimethanesulfonate

With `CS(=O)(=O)O.CS(=O)(=O)O.C[C@@H](Cc1ccccc1)NC(=O)[C@@H](N)CCCCN` [Lisdexamfetamine dimesylate, (2S)-2,6-diamino-N-[(1S)-1-methyl-2-phenylethyl]-hexanamide, dimethanesulfonate] as the molecule, how does the “hygroscopic / deliquescent nature” value [1] read?
The value was “highly deliquescent”.

And the “hygroscopic / deliquescent nature” value ([1]; listed as lisdexamfetamine dimesylate)?
Its value is “hygroscopic”.

What about the solubility (in acetone) of the same molecule?
The solubility was “very slightly soluble”.

And the solubility (in chloroform)?
Its solubility is “very slightly soluble”.

And the solubility (in ethanol)?
The solubility was “soluble”.

And the solubility (in methanol)?
The solubility was “freely soluble”.

What about the solubility (in tetrahydrofuran) of the same molecule?
The solubility was “practically insoluble”.

And the solubility (in toluene)?
The solubility was “very slightly soluble”.
